Data taken from patent US20220226343A1, “3-AMINO-4-[4-[4 (DIMETHYLCARBAMOYL) PHENYL]-1,4-DIAZEPAN-1-YL]THIENO[2,3-B]PYRIDINE-2-CARBOXAMIDE FOR USE IN CANCER THERAPY AND FORMULATIONS COMPRISING THE SAME” (University of South Carolina, priority 2019, published 2022).

Assays:
[1] = test system: PSA expression in CRPC cell line C4-2; assay: PSA expression in cell culture supernatant of C4-2 cells; assay type: cell-based; settings: 96 h; C4-2 culture supernatant, 4-day treatment, FBS-supplemented regular media
From the text: CDK8/19 inhibition decreases the expression of certain androgen-receptor (AR) inducible genes including PSA, the most common marker of prostate cancer, and the growth of castration-refractory prostate cancers (CRPC).

MYC-CAP-CR cells = assay: Short-term cell proliferation assay, MYC-CAP-CR; assay type: cell-based, murine; settings: androgen-containing media
From the text: (§1) MYC-CaP-CR cells (Ellis L. et al., 2012. Prostate 72(6):587-591) were selected for castration resistance from genetically engineered MYC-CaP cells that express MYC from an AR-responsive promoter (Watson P A, et al., 2005. Cancer Res 65(24):11565-11571). Castration resistance in these cells is associated with the overexpression of full-length AR rather than an AR variant, such as AR-V7 in 22rv1 (Olson B M, et al., 2017. Cancer immunology research 5(12):1074-1085).

MYC-CaP-CR tumors = MYC-CaP-CR tumors subcutaneous in intact FVB male mice; assay type: in vivo, mouse
From the text: as §1

[2] = test system: 4T1 murine TNBC lung metastasis; assay: 4T1 breast cancer metastasis survival after primary tumor removal; assay type: in vivo, mouse; settings: 15u 25 mg/kg oral b.i.d. after removal of the primary 4T1 tumor
Description: 4T1 is a murine triple-negative breast cancer (TNBC) cell line, which is highly metastatic to the lungs. […] Parental and CDK8-knockdown 4T1 cells (n=10) were injected orthotopically in the mammary fat pad and the primary tumors were removed 17 days later. Following surgery, all the mice eventually died with lung metastases. […] However, the loss of CDK8 was associated with a strong increase in the survival of mice (FIG. 10C). […]

[3] = Oral PK by formulation, male CD-1 mice 30 mg/kg; assay type: in vivo, mouse; settings: for Elimination rate k: male CD-1
[4] = Oral PK by formulation, male Sprague Dawley rats 30 mg/kg; assay type: in vivo, rat; settings: oral 30 mg/kg
Description: We have also compared the PK of Suspension Vehicle 1 and Liquid formulation 2 in male Sprague Dawley rats, after oral administration at 30 mg/kg.

[5] = MTD, oral gavage b.i.d. 14 days, CD-1 mice; assay type: in vivo, mouse; settings: for detrimental effects: 14 days
Description: The highest dose (120 mg/kg b.i.d.) caused about 10% body weight loss in female mice after 7-10 days of treatment but no further deterioration was observed through the rest of the treatment period (FIG. 16A).

[6] = Maximum solubility of 15u in individual excipients; assay type: physicochemical; design: key to XRPD Pattern (API = A): API = A
Description: The binary mixtures were incubated on a shaker with temperature control either at 25° C. or 40° C. for at least 48 hours. The mixtures were filtered with 0.45 μm filters to separate the solid and liquid portions. PLC was performed on the on the liquid portion to determine the maximum solubility. XRPD was performed on the collected solid to check polymorph change.

[7] = test system: alkaline phosphatase (ALPase); settings: concentration that enhances ALPase activity to 200% of control, ST2 cells; cited from earlier work
[8] = test system: CRPC cell line 22rv1 xenograft
MV4-11 cells = assay: cells; settings: Homo sapiens, MV4-11, read-out: Inhibition Potency MV4-11-Luc Assay
in vivo = settings: female, CD-1, mouse, in vivo, po, 30 mg/kg
CSNK1D = CSNK1D (Homo sapiens, UniProt P48730); assay: Kd Elect binding assay (DiscoverX)
MDA-MB-468 xenografts = assay: MDA-MB-468 TNBC xenografts in NSG female mice; settings: 250 ppm medicated diet plus 5 then 8 mg/kg daily gavage, 66 days
[9] = 50 mg/kg orally daily, castrated male nude mice

Chain of CSNK1D (P48730 whole entry): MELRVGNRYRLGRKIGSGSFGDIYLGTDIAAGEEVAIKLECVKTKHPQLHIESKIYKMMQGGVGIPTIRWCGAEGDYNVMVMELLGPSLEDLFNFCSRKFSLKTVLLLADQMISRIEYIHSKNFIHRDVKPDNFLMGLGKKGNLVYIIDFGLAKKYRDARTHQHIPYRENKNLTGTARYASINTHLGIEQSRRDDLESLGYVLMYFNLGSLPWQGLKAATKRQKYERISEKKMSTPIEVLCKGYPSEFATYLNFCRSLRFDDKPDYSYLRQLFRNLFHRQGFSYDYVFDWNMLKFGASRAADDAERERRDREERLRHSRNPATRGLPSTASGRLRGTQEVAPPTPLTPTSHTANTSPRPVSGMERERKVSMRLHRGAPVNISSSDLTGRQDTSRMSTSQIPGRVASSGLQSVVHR

With `CN(C)C(=O)c1ccc(N2CCCN(c3ccnc4sc(C(N)=O)c(N)c34)CC2)cc1` [Compound 15u, 3-amino-4-(4-(4-(dimethylcarbamoyl)phenyl)-1,4-diazepan-1-yl)thieno[2,3-b]pyridine-2-carboxamide] the IC50 [1] was 0.028 µM, the MYC-CAP-CR cell growth (MYC-CAP-CR cells) was “little effect” and the “MYC-CaP-CR tumor volume and weight” value (MYC-CaP-CR tumors) was “modest effect”. For the same molecule, the “mouse survival of the metastatic disease” value [2] was “significantly increased mouse survival”, the Elimination rate k ([3]; LF-V#2, oral 30 mg/kg) was 0.22 h⁻¹ and the Elimination rate k ([3]; Sus-V#1, oral 30 mg/kg) was 0.37 h⁻¹. For the same molecule, the Elimination rate k ([3]; Sus-V#2, oral 30 mg/kg) was 0.38 h⁻¹, the “increase of AUC, Liquid formulation 2 vs both suspension vehicles” value ([3]; oral 30 mg/kg, male CD-1 mice) was 2-3 fold and the “increase of t1/2, Liquid formulation 2 vs both suspension vehicles” value ([3]; oral 30 mg/kg, male CD-1 mice) was roughly 1.7 fold. The “increase of AUC, Liquid formulation 2 vs Suspension Vehicle 1” value [4] was greater than 3 fold, the body weight loss ([5]; female CD-1 mice, 120 mg/kg b.i.d., after 7-10 days of treatment) was “about 10%” and the detrimental effects ([5]; female CD-1 mice, doses up to 60 mg/kg b.i.d.) was “No detrimental effects were observed”. For the same molecule, the detrimental effects ([5]; male CD-1 mice, 60 and 120 mg/kg b.i.d.) was “No detrimental effects were observed”, the “Maximum Solubility” value ([6]; Capryol 90) was 2.9 mg/g and the “Maximum Solubility” value ([6]; Crodamol GMCC SS) was 5.5 mg/g. For the same molecule, the “Maximum Solubility” value ([6]; Gelucire 44/14) was 3.4 mg/g, the “Maximum Solubility” value ([6]; Kolliphor EL) was 1.3 mg/g and the “Maximum Solubility” value ([6]; Labrafac PG) was 0.0 mg/g. For the same molecule, the “Maximum Solubility” value ([6]; Labrafil M2125CS) was 0.4 mg/g, the “Maximum Solubility” value ([6]; Labrasol) was 5.4 mg/g and the “Maximum Solubility” value ([6]; Lecithin) was 1.9 mg/g. The “Maximum Solubility” value ([6]; Maisine CC) was 2.4 mg/g, the “Maximum Solubility” value ([6]; Miglyol 812N) was 0.0 mg/g and the “Maximum Solubility” value ([6]; Oleic Acid) was 0.8 mg/g. For the same molecule, the “Maximum Solubility” value ([6]; Olive Oil) was 0.0 mg/g, the “Maximum Solubility” value ([6]; PEG 300) was 19.8 mg/g and the “Maximum Solubility” value ([6]; PEG 400) was 11.8 mg/g. The “Maximum Solubility” value ([6]; PEG 600) was 18.3 mg/g, the “Maximum Solubility” value ([6]; Peceol) was 2.5 mg/g and the “Maximum Solubility” value ([6]; Sesame Oil) was 0.0 mg/g. The “Maximum Solubility” value ([6]; Span 20) was 8.0 mg/g, the “Maximum Solubility” value ([6]; Span 80) was 1.4 mg/g and the “Maximum Solubility” value ([6]; Transcutol HP) was 3.4 mg/g. For the same molecule, the “Maximum Solubility” value ([6]; Tween 80) was 1.9 mg/g, the “Maximum Solubility” value ([6]; Vitamin E TPGS) was 14.6 mg/g and the “XRPD Pattern (API = A)” value ([6]; solid collected from Capryol 90) was “A”. The “XRPD Pattern (API = A)” value ([6]; solid collected from Crodamol GMCC SS) was “A”, the “XRPD Pattern (API = A)” value ([6]; solid collected from Kolliphor EL) was “A” and the “XRPD Pattern (API = A)” value ([6]; solid collected from Labrafac PG) was “A”. For the same molecule, the “XRPD Pattern (API = A)” value ([6]; solid collected from Labrafil M2125CS) was “A”, the “XRPD Pattern (API = A)” value ([6]; solid collected from Labrasol) was “A” and the “XRPD Pattern (API = A)” value ([6]; solid collected from Lecithin) was “A”. The “XRPD Pattern (API = A)” value ([6]; solid collected from Maisine CC) was “A”, the “XRPD Pattern (API = A)” value ([6]; solid collected from Miglyol 812N) was “A” and the “XRPD Pattern (API = A)” value ([6]; solid collected from Oleic Acid) was “A”. For the same molecule, the “XRPD Pattern (API = A)” value ([6]; solid collected from Olive Oil) was “A”, the “XRPD Pattern (API = A)” value ([6]; solid collected from PEG 300) was “A” and the “XRPD Pattern (API = A)” value ([6]; solid collected from PEG 400) was “A”. The “XRPD Pattern (API = A)” value ([6]; solid collected from PEG 600) was “A”, the “XRPD Pattern (API = A)” value ([6]; solid collected from Peceol) was “A” and the “XRPD Pattern (API = A)” value ([6]; solid collected from Sesame Oil) was “A”. For the same molecule, the “XRPD Pattern (API = A)” value ([6]; solid collected from Span 20) was “A”, the “XRPD Pattern (API = A)” value ([6]; solid collected from Span 80) was “A” and the “XRPD Pattern (API = A)” value ([6]; solid collected from Tween 80) was “A”. The “ALP activity Assay EC200” value [7] was 31.9 nM, the “22rv1 tumor growth over the long term” value ([8]; 50 mg/kg once a day, 25 mg/kg twice a day, 50 mg/kg twice a day) was “drastically inhibited 22rv1 tumor growth” and the “22rv1 xenograft tumor growth” value [8, 9] was “strongly suppressed the tumor growth”. The “adverse effects and mouse body weight” value [8, 9] was “no apparent adverse effects and no diminution of mouse body weight”, the IC50 (MV4-11 cells) was 0.03 µM and the AUC(0-t) (in vivo) was 6600 ng·h/mL. The Kd (CSNK1D) was 0.86 µM, the MDA-MB-468 tumor volume (MDA-MB-468 xenografts) was “significant reduction in tumor volume” and the “MDA-MB-468 tumor weights at the end of the study” value (MDA-MB-468 xenografts) was “significantly lower”. The mouse body weights (MDA-MB-468 xenografts) was “no detrimental effects”.
